{
  "source": "paper PMC3025922",
  "about": "(BMC Biology, 2010)",
  "assay_type_in_all_cases": "cell-based, human",
  "key": {"LNCaP-S14 cells": {"test_system": "LNCaP-S14 cells", "experiment": "Cell cycle distribution in LNCaP-S14 transfected with siRNAs for p27 and p21", "experimental": "(§1) Cells were exposed to SMIPs (40 μM) for 24 h and 48 h. Cells were trypsinized, washed with PBS and suspended in 600 μL PBS. Cells were fixed by adding 1.4 mL cold absolute ethanol and kept at -20°C for at least 12 h. After washing once with PBS, the cells were resuspended in 250 μL PBS containing 2.5 μg RNAse A and incubated for 45 min at room temperature. Staining was done by adding 40 μg/mL of propidium iodine followed by incubation for 15 min at room temperature. DNA-bound fluorescence was read at 564 to 606 nm using FACSort and FACSCanto flow cytometers (BD Biosciences) at the Flow Cytometry Facility of the Sanford-Burnham Medical Research Institute. Distribution of cells in the different cell cycle phase was determined with ModFit LT 3.2.1 or FlowJo 8.6 software. Aggregates were excluded from the analysis manually using pulse shape or identified by automated modelling in ModFit LT.\nLNCaP-S14 cells were seeded in 6 cm dishes or six-well-plates coated with poly-lysine the day before transfection. 10-20 nM of siRNA was transfected using DharmaFECT 3 (Thermo Scientific) according to the manufacturer's instructions. Briefly, siRNAs were dissolved in siRNA suspension buffer (Quiagen) at 20 μM, heated to 90°C for 1 min and incubated at 37°C for 1 h. siRNAs were added to the DharmaFECT 3 reagent diluted in Optimem media (1:100) and incubated for 20 min at room temperature. The mix was added to the cells for 24 h. Treatment with SMIPs (40 μM) or vehicle was carried on for another 24 h. Cells were obtained for FACS or lysed for immunoblotting analysis as described above. Untransfected cells as well as cells transfected with non-specific siRNA were used as controls. Silencer® Negative Control siRNA No.1 from Ambion (Applied Biosciences, CA, USA) was used as non-specific control siRNA. siRNA target sequences for p27 and p21 synthesized by IDT (Integrated DNA Technologies Inc, Iowa, USA) were as follows; p27 siRNA: […], and p21 siRNA: […] [56]."}, "[1]": {"test_system": "p27 protein levels in IMR90 cells", "experiment": "Immunoblot quantification of p27, IMR90", "experimental": "Total cell lysate from cells treated with vehicle (DMSO) or compounds were obtained by incubating cells in lysis buffer (25 mM Tris-HCl pH 7.4, 150 mM NaCl, 0.5% Triton X-100, protease inhibitors) for 15 min at 4°C. The supernatant was collected by centrifugation and the amount of protein was determined with a Bio-Rad protein assay (Bio-Rad) using BSA as standard. Equal amounts of protein were subjected to SDS-PAGE (4%-20% gels, Invitrogen) and transferred to PVDF membranes. The membranes were blocked with TBST (50 mM Tris-HCl pH 7.5, 150 mM NaCl, 0.05% Tween-20) containing 5% non-fat dry milk or bovine serum albumin (BSA) for 1 h at room temperature, followed by incubation in primary antibodies 4°C overnight. Membranes were washed and incubated with secondary antibodies conjugated to HRP (Jackson ImmunoResearch Laboratories) for 1 h at room temperature. Signals were visualized using the ECL Western Blotting Substrate (Pierce Biotechnology, IL, USA) according to the manufacturer's instructions. Membranes were stripped using Restore™ Western Blot Stripping Buffer (Pierce Biotechnology). Films were scanned and quantification of the bands was performed using Image J software http://rsbweb.nih.gov/ij/."}, "DU145 cells": {"test_system": "DU145 cells", "experiment": "Cell cycle analysis by flow cytometry, DU145", "experimental": "as §1"}},
  "note": "“And” between values parts separate entries of the source, which are not always exact repeats. Identical values can stand only once.",
  "data": [
    {"molecule": "CC(C)(C)c1cc2cc(NC(=O)c3cccs3)ccc2[nH]1", "note": "[SMIP001]", "values": [
      {"measurement": "% G1", "setting": "LNCaP-S14 cells", "result": "71.86% and 75.76% and 75.13% and 72.22%"},
      {"measurement": "% G2", "setting": "LNCaP-S14 cells", "result": "21.07% and 14.54% and 18.37% and 16.74%"},
      {"measurement": "% S", "setting": "LNCaP-S14 cells", "result": "7.07% and 9.70% and 6.50% and 11.04%"},
      {"measurement": "p27 protein level (immunoblot, DMSO = 1.0)", "setting": "[1]", "result": "1.0 ± 0.0"},
      {"measurement": "Cell cycle distribution G1", "setting": "DU145 cells", "result": "65.6 and 71.1"},
      {"measurement": "Cell cycle distribution G2", "setting": "DU145 cells", "result": "9.7 and 13.6"},
      {"measurement": "Cell cycle distribution S", "setting": "DU145 cells", "result": "23.9 and 13.4"}
    ]}
  ]
}
